Experimental findings from patent US20040192771A1, “Ether compounds and compositions for cholesterol management and related uses” (priority 2001, published 2004) are described below.

The IC50 is the concentration at which inhibition is half-maximal. A higher IC50 goes with lower potency.

Like-named read-outs stand apart in the source and are kept apart here.

In assay [1] the test system is obese female Zucker rats. Nature of the assay: Oral daily treatment of obese female Zucker rats for fourteen days; serum lipids and glycemic control indicators. The settings on record: Rattus norvegicus, percent change from study prebleed; for change in vivo at 97 mg/kg/day: 97 mg/kg/day oral; for change in vivo at 100 mg/kg/day: 100 mg/kg/day oral. Type of assay: in vivo. Here is the method: In a number of different experiments, illustrative compounds of the invention are administered daily at a dose of up to 100 mg/kg to chow fed obese female Zucker rats for fourteen days in the morning by oral gavage in 1.5% carboxymethylcellulose/0.2% Tween 20 or 20% ethanol/80% polyethylene glycol (dosing vehicles). Animals are weighed daily. Animals are allowed free access to rodent chow and water throughout the study except on days of blood sampling where food is restricted for six hours prior to blood sampling. Blood glucose is determined after the 6 hour fast in the afternoon without anesthesia from a tail vein. Serum is also prepared from pretreatment blood samples subsequently obtained from the orbital venous plexus (with O2/CO2 anesthesia) and following the fourteenth dose at sacrifice from the heart following O2/CO2 anesthesia. Serums are assayed for lipoprotein cholesterol profiles, triglycerides, total cholesterol, Non HDL cholesterol, HDL cholesterol, the ratio of HDL cholesterol to that of Non HDL cholesterol, insulin, non esterified fatty acids, and beta hydroxy butyric acid. The percent body weight gain and the ratio of liver to body weight is also determined. These are shown as absolute values or as a percent change of the pretreatment values in Table C. [drawing 479] [drawing 480]

Assay [2] has as its system primary rat hepatocytes. Nature of the assay: Inhibition of lipid synthesis ([1-14C]-acetate incorporation) in primary cultures of rat hepatocytes. It is filed as cell-based. The settings on record: Hepatocyte, total lipid synthesis, 4 hours incubation. As for the experimental part:
Compounds were tested for inhibition of lipid synthesis in primary cultures of rat hepatocytes. Male Sprague-Dawley rats were anesthetized with intraperitoneal injection of sodium pentobarbital (80 mg/kg). Rat hepatocytes were isolated essentially as described by the method of Seglen (Seglen, P. O. Hepatocyte suspensions and cultures as tools in experimental carcinogenesis. J. Toxicol. Environ. Health 1979, 5, 551-560). Hepatocytes were suspended in Dulbecco's Modified Eagles Medium containing 25 mM D-glucose, 14 mM HEPES, 5 mM L-glutamine, 5 mM leucine, 5 mM alanine, 10 mM lactate, 1 mM pyruvate, 0.2% bovine serum albumin, 17.4 mM non-essential amino acids, 20% fetal bovine serum, 100 nM insulin and 20 μg/mL gentamycin) and plated at a density of 1.5×10^5 cells/cm^2 on collagen-coated 96-well plates. Four hours after plating, media was replaced with the same media without serum. Cells were grown overnight to allow formation of monolayer cultures. Lipid synthesis incubation conditions were initially assessed to ensure the linearity of [1-^14C]-acetate incorporation into hepatocyte lipids for up to 4 hours. Hepatocyte lipid synthesis inhibitory activity was assessed during incubations in the presence of 0.25 μCi [1-^14C]-acetate/well (final radiospecific activity in assay is 1 Ci/mol) and 0, 1, 3, 10, 30, 100 or 300 μM of compounds for 4 hours. At the end of the 4-hour incubation period, medium was discarded and cells were washed twice with ice-cold phosphate buffered saline and stored frozen prior to analysis. To determine total lipid synthesis, 170 μl of MicroScint-E® and 50 μl water was added to each well to extract and partition the lipid soluble products to the upper organic phase containing the scintillant. Lipid radioactivity was assessed by scintillation spectroscopy in a Packard TopCount NXT.

The test system of assay [3] is obese female Zucker rats. Put plainly: Oral daily treatment of obese female Zucker rats for fourteen days; serum lipids and glycemic control indicators. The settings on record: Rattus norvegicus, 168 h; percent change from study prebleed; week 1; 97 mg/kg/day oral; read-out: HDL-C. Type of assay: in vivo.
[4] abbreviates: 168 h, week 1, read-out: Glucose.
Setting [5] is: 168 h, week 1, read-out: Insulin.
[6] abbreviates: 168 h, week 1, read-out: Non-HDL-C.
Where [7] appears, read: 336 h, week 2, read-out: Glucose.
The mark [8] stands for this setting: 336 h, week 2, read-out: Insulin.
The mark [9] stands for this setting: 336 h, week 2, read-out: Non-HDL-C.

Turning to `CC(C)(CO)CCCC1CCC(CCCC(C)(C)CO)O1` (centres unmarked) [Compound 138, 5-[5-(5-Hydroxy-4,4-dimethylpentyl)-tetrahydrofuran-2-yl]-2,2-dimethylpentan-1-ol], the change in vivo at 97 mg/kg/day in assay [1] (setting [4]) was 35%; in assay [1] (setting [5]), 43%; in assay [1] (setting [6]), 11%; in assay [1] (168 h, week 1, read-out: TC) it was 128%; in assay [1] (168 h, week 1, read-out: TG) it was -49%; in assay [1] (setting [7]) it was 10%. In addition, the change in vivo at 97 mg/kg/day in assay [1] (336 h, week 2, read-out: HDL-C) was 140%; in assay [1] (setting [8]), 69%; in assay [1] (setting [9]) it was 31%; in assay [1] (336 h, week 2, read-out: TC) it was 74%; in assay [1] (336 h, week 2, read-out: TG), -13%; in assay [3], 287%. Inhibition in assay [2] was half-maximal at 9 µM (IC50).

In the case of `CC(C)(CO)CCCCOCCCC(C)(C)CO` [Compound 126, 6-(5-Hydroxy-4,4-dimethylpentyloxy)-2,2-dimethylhexan-1-ol], the change in vivo at 100 mg/kg/day was 68% in assay [1] (setting [4]); 630% in assay [1] (168 h, week 1, read-out: HDL-C); 240% in assay [1] (setting [5]); -28% in assay [1] (setting [6]); 119% in assay [1] (168 h, week 1, read-out: TC); -63% in assay [1] (168 h, week 1, read-out: TG). Further, the change in vivo at 100 mg/kg/day in assay [1] (setting [7]) was 9%; in assay [1] (336 h, week 2, read-out: HDL-C), 786%; in assay [1] (setting [8]) it was 145%; in assay [1] (setting [9]) it was -17%; in assay [1] (336 h, week 2, read-out: TC), 161%; in assay [1] (336 h, week 2, read-out: TG) it was -58%. Moreover, in assay [2], the IC50 came out at 17 µM.
